Values joined by “and” are separate entries in the source; they are usually repeats but may differ in a detail not shown here. Equal entries are not always repeated.
Test system: ASPS-1 complex tumor spheroids, viability
Experiment: Anticancer human tumor ASPS-1 cell line growth inhibition;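 also: spheroids exposed to agents for 7 days after 3 days of growth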;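 as to viability, T/C: 100% = DMSO vehicle treated spheroids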
Details: for viability, T/C: stronger effect = lower value
How it was run: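 Complex tumor spheroids combined malignant cells with endothelial cells and mesenchymal stem cells. DNA-damaging drugs and DNA repair inhibitors were tested alone and in combination, at half-log dilutions down from clinical Cmax (top 10 microM if Cmax unknown), 0.25% DMSO final.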

Cc1sc2c(c1C)C(c1ccc(Cl)cc1)=NC(CC(=O)Nc1ccc(O)cc1)c1nnc(C)n1-2 (configuration not stated) + Cn1nnc2c(C(N)=O)ncn2c1=O
IC50 (curve of first compound, second compound 1 µM): > 3 µM | IC50 (curve of first compound, second compound 3.16 µM): > 3 µM | IC50 (curve of first compound, second compound 10 µM): > 3 µM | IC50 (curve of first compound, second compound 31.6 µM): > 3 µM | IC50 (curve of first compound, second compound 100 µM): > 3 µM | viability, T/C (second compound 1 µM, first compound 0.00949 µM): 102% | viability, T/C (second compound 1 µM, first compound 0.03 µM): 110% | viability, T/C (second compound 1 µM, first compound 0.0949 µM): 114% | viability, T/C (second compound 1 µM, first compound 0.3 µM): 99.4% | viability, T/C (second compound 1 µM, first compound 0.949 µM): 91.6% | viability, T/C (second compound 1 µM, first compound 3 µM): 88.6% | viability, T/C (second compound 3.16 µM, first compound 0.00949 µM): 101% | viability, T/C (second compound 3.16 µM, first compound 0.03 µM): 108% | viability, T/C (second compound 3.16 µM, first compound 0.0949 µM): 111% | viability, T/C (second compound 3.16 µM, first compound 0.3 µM): 96.7% | viability, T/C (second compound 3.16 µM, first compound 0.949 µM): 94.9% | viability, T/C (second compound 3.16 µM, first compound 3 µM): 89.9% | viability, T/C (second compound 10 µM, first compound 0.00949 µM): 88.7% | viability, T/C (second compound 10 µM, first compound 0.03 µM): 99.6% | viability, T/C (second compound 10 µM, first compound 0.0949 µM): 99.1% | viability, T/C (second compound 10 µM, first compound 0.3 µM): 100% | viability, T/C (second compound 10 µM, first compound 0.949 µM): 97.5% | viability, T/C (second compound 10 µM, first compound 3 µM): 83.9% | viability, T/C (second compound 31.6 µM, first compound 0.00949 µM): 94.6% | viability, T/C (second compound 31.6 µM, first compound 0.03 µM): 92.3% | viability, T/C (second compound 31.6 µM, first compound 0.0949 µM): 103% | viability, T/C (second compound 31.6 µM, first compound 0.3 µM): 95.6% | viability, T/C (second compound 31.6 µM, first compound 0.949 µM): 83.9% | viability, T/C (second compound 31.6 µM, first compound 3 µM): 80.3% | viability, T/C (second compound 100 µM, first compound 0.00949 µM): 75.9% | viability, T/C (second compound 100 µM, first compound 0.03 µM): 82.6% | viability, T/C (second compound 100 µM, first compound 0.0949 µM): 84.8% | viability, T/C (second compound 100 µM, first compound 0.3 µM): 79% | viability, T/C (second compound 100 µM, first compound 0.949 µM): 70.7% | viability, T/C (second compound 100 µM, first compound 3 µM): 61.2%

CNCc1ccc(-c2cc(-c3nc(-c4ccc(S(=O)(=O)C(C)C)cc4)cnc3N)on2)cc1 + COc1cc2c(cc1O)CCNC21CSC2c3c(OC(C)=O)c(C)c4c(c3C(COC1=O)N1C(O)C3Cc5cc(C)c(OC)c(O)c5C(C21)N3C)OCO4
IC50 (curve of first compound, second compound 30 pM): 0.922 µM | IC50 (curve of first compound, second compound 94.9 pM): 0.857 µM | IC50 (curve of first compound, second compound 0.0003 µM): 0.552 µM | IC50 (curve of first compound, second compound 0.000949 µM): 0.185 µM | IC50 (curve of first compound, second compound 0.003 µM): < 0.00949 µM | viability, T/C (second compound 30 pM, first compound 0.00949 µM): 109% | viability, T/C (second compound 30 pM, first compound 0.03 µM): 104% | viability, T/C (second compound 30 pM, first compound 0.0949 µM): 105% | viability, T/C (second compound 30 pM, first compound 0.3 µM): 74.3% | viability, T/C (second compound 30 pM, first compound 0.949 µM): 51.9% | viability, T/C (second compound 30 pM, first compound 3 µM): 14.9% | viability, T/C (second compound 94.9 pM, first compound 0.00949 µM): 106% | viability, T/C (second compound 94.9 pM, first compound 0.03 µM): 108% | viability, T/C (second compound 94.9 pM, first compound 0.0949 µM): 108% | viability, T/C (second compound 94.9 pM, first compound 0.3 µM): 80.8% | viability, T/C (second compound 94.9 pM, first compound 0.949 µM): 48.3% | viability, T/C (second compound 94.9 pM, first compound 3 µM): 9.57% | viability, T/C (second compound 0.0003 µM, first compound 0.00949 µM): 106% | viability, T/C (second compound 0.0003 µM, first compound 0.03 µM): 111% | viability, T/C (second compound 0.0003 µM, first compound 0.0949 µM): 102% | viability, T/C (second compound 0.0003 µM, first compound 0.3 µM): 66.4% | viability, T/C (second compound 0.0003 µM, first compound 0.949 µM): 34.7% | viability, T/C (second compound 0.0003 µM, first compound 3 µM): 5.83% | viability, T/C (second compound 0.000949 µM, first compound 0.00949 µM): 85.8% | viability, T/C (second compound 0.000949 µM, first compound 0.03 µM): 83% | viability, T/C (second compound 0.000949 µM, first compound 0.0949 µM): 64.9% | viability, T/C (second compound 0.000949 µM, first compound 0.3 µM): 36.1% | viability, T/C (second compound 0.000949 µM, first compound 0.949 µM): 20.2% | viability, T/C (second compound 0.000949 µM, first compound 3 µM): 1.09% | viability, T/C (second compound 0.003 µM, first compound 0.00949 µM): 16.9% | viability, T/C (second compound 0.003 µM, first compound 0.03 µM): 24.3% | viability, T/C (second compound 0.003 µM, first compound 0.0949 µM): 15.2% | viability, T/C (second compound 0.003 µM, first compound 0.3 µM): 2.85% | viability, T/C (second compound 0.003 µM, first compound 0.949 µM): 0.66% | viability, T/C (second compound 0.003 µM, first compound 3 µM): 0.65%

CNCc1ccc(-c2cc(-c3nc(-c4ccc(S(=O)(=O)C(C)C)cc4)cnc3N)on2)cc1
viability, T/C (compound 0.00949 µM): 107% and 103% and 105% | viability, T/C (compound 0.03 µM): 102% and 113% and 112% | viability, T/C (compound 0.0949 µM): 97.4% and 108% and 96.5% | viability, T/C (compound 0.3 µM): 58.1% and 74.3% and 76.5% | viability, T/C (compound 0.949 µM): 40.4% and 38.1% and 45.4% | viability, T/C (compound 3 µM): 9.11% and 6.66% and 18% | IC50 (curve of compound): 0.545 µM and 0.644 µM and 0.783 µM
